# According to US10208064B2, “Inhibitors of the renal outer medullary potassium channel” (MERCK SHARP & DOHME CORP., priority 2014, dated 2019):
# pIC50: −log10 of the molar value.
# Target: ROMK (Kir1.1) channel (Homo sapiens (Human), UniProt P48048)
# Assay: Thallium Flux Assay
# Type: cell-based
# Description: The following Thallium Flux Assay was performed on each of the final product compounds in the Examples.
# A Thallium Flux Assay was performed on the compounds of the Examples. This assay has been described previously; see, e.g., PCT Published Application WO 2013/062900.
# ROMK (Kir1.1) channel, sequence (P48048 whole entry): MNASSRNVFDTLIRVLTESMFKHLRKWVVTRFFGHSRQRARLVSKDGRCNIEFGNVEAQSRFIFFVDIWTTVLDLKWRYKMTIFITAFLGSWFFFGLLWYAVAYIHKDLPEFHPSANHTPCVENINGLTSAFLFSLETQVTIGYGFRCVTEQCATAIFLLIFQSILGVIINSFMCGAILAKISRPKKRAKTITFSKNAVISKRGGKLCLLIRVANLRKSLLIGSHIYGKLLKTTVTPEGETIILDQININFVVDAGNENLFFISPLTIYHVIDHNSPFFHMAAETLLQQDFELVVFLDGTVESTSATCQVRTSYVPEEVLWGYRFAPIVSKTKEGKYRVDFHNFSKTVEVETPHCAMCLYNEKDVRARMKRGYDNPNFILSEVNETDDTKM
row,pIC50,SMILES
1,7.34,"CC1=C(N2CCC3(CCN(C[C@H](O)c4ccc5c(c4C)CCc4nnnn4-5)CC3)C2=O)COC1=O [Example 10, (R)-8-(2-hydroxy-2-(6-methyl-4,5-dihydrotetrazolo[1,5-a]quinolin-7-yl)ethyl)-2-(4-methyl-5-oxo-2,5-dihydrofuran-3-yl)-2,8-diazaspiro[4.5]decan-1-one]"
2,7.36,"CC1=C(N2CCC3(CCN([C@H](CO)c4ccc5c(ccc6nnnn65)c4)CC3)C2=O)COC1=O [Example 28A, (S)-8-(2-hydroxy-1-(tetrazolo[1,5-a]quinolin-7-yl)ethyl)-2-(4-methyl-5-oxo-2,5-dihydrofuran-3-yl)-2,8-diazaspiro[4.5]decan-1-one]"
3,6.38,"CC1=C(N2CCC3(CCN(C(CO)c4ccc5c(c4)CCc4nnnn4-5)CC3)C2=O)COC1=O (centres unmarked) [Example 29, 8-(1-(4,5-dihydrotetrazolo[1,5-a]quinolin-7-yl)-2-hydroxyethyl)-2-(4-methyl-5-oxo-2,5-dihydrofuran-3-yl)-2,8-diazaspiro[4.5]decan-1-one]"
4,7.70,"C[C@H]1CC2(CCN(C[C@H](O)c3ccc4c(ccc5nnnn54)c3)CC2)C(=O)N1C1=CC(=O)OC1 [Example 17, (S)-8-((R)-2-hydroxy-2-(tetrazolo[1,5-a]quinolin-7-yl)ethyl)-3-methyl-2-(5-oxo-2,5-dihydrofuran-3-yl)-2,8-diazaspiro[4.5]decan-1-one]"
5,8.22,"CC1=C(N2CCC3(CCN(CCc4ccc5c(c4)Cn4nnnc4-5)CC3)C2=O)COC1=O [Example 30, 8-(2-(5H-tetrazolo[5,1-a]isoindol-7-yl)ethyl)-2-(4-methyl-5-oxo-2,5-dihydrofuran-3-yl)-2,8-diazaspiro[4.5]decan-1-one]"
6,6.55,"C[C@@H]1CC2(CCN(C[C@@H](O)c3ccc4c(c3)CCc3nnnn3-4)CC2)C(=O)N1C1=CC(=O)OC1 [Example 14, (R)-8-((S)-2-(4,5-dihydrotetrazolo[1,5-a]quinolin-7-yl)-2-hydroxyethyl)-3-methyl-2-(5-oxo-2,5-dihydrofuran-3-yl)-2,8-diazaspiro[4.5]decan-1-one]"
7,6.89,"CC1=C(N2CCC3(CCN(C[C@H](O)c4cc5c(cc4C4CC4)-c4nnnn4C5)CC3)C2=O)COC1=O [Example 25, (R)-8-(2-(8-cyclopropyl-5H-tetrazolo[5,1-a]isoindol-7-yl)-2-hydroxyethyl)-2-(4-methyl-5-oxo-2,5-dihydrofuran-3-yl)-2,8-diazaspiro[4.5]decan-1-one]"
8,7.89,"CC1=C(N2CCC3(CCN(C[C@H](O)c4ccc5c(c4)Cn4nnnc4-5)CC3)C2=O)COC1=O [Example 8, (R)-8-(2-hydroxy-2-(5H-tetrazolo[5,1-a]isoindol-7-yl)ethyl)-2-(4-methyl-5-oxo-2,5-dihydrofuran-3-yl)-2,8-diazaspiro[4.5]decan-1-one]"
